Laboratory results from patent US11840527B2, “Non-fused thiophene derivatives and their uses” (ENYO PHARMA, priority 2018, dated 2023).
Structures can show the parent of a compound that is named as a salt.

Tested on: H1N1 (influenza A/New Caledonia/20/99)
Test: Antiviral effect on A549 cells infected with H1N1
Assay type: cell-based, H1N1 A/New Caledonia/20/99 virus
Details: Influenza A virus, MOI 0.1, 48 h post-infection, MUNANA neuraminidase readout
Method: The antiviral effect of the compounds of the invention have been tested on A549 cell lines infected with H1N1 (influenza A/New Caledonia/20/99).
Human A549 cells (80,000 cells/well in a 96 well plate) were treated with a range of concentration of test compounds and immediately infected by H1N1 A/New Caledonia/20/99 virus (clinical isolate) at MOI of 0.1 in DMEM/1% Penicillin/streptomycin supplemented with […] TPCK trypsin (Sigma) and incubated at 37° C. in 5% CO2. 48 h post-infection, supernatants (25 μl) were collected and transferred into a 96-well black flat-bottom plate, mixed with 25 μl PBS with Ca++/Mg++ (Thermo Fisher) and 50 μl of 2′-(4-Methylumbelliferyl)-ax-D-N-acetylneuraminic acid sodium salt hydrate stock-solution (20 μM, MUNANA, Sigma). Plates were incubated 1h at 37° C. and reaction is stopped by adding 100 μl of Stop Solution (glycine 0.1 M pH10.7/25% ethanol). The amount of fluorescent product released by MUNANA hydrolysis (4-MU) was measured in a Tecan spectrophotometer with excitation and emission wavelengths of 365 and 450 nm respectively.

Cc1sc(NC(=O)c2ccc(NCC3CCOCC3)cc2)c(C(=O)O)c1C [Compound #102, 4,5-Dimethyl-2-[[4-(tetrahydropyran-4-ylmethylamino)benzoyl]amino]thiophene-3-carboxylic acid]
IC50: 0.82 µM

CC(C)Cc1csc(NC(=O)c2ccc(NCC3CCOCC3)cc2)c1C(=O)O [Compound #113, 4-Isobutyl-2-[[4-(tetrahydropyran-4-ylmethylamino)benzoyl]amino]thiophene-3-carboxylic acid]
IC50: 0.12 µM

O=C(Nc1scc(C2CC2)c1C(=O)O)c1ccc(NCC2CCOCC2)cc1 [Compound #90, 4-Cyclopropyl-2-[[4-(tetrahydropyran-4-ylmethylamino)benzoyl]amino]thiophene-3-carboxylic acid]
IC50: 0.24 µM

COC1CN(c2ccc(C(=O)Nc3scc(C4CC(F)(F)C4)c3C(=O)O)cc2)C1 [Compound #107, 4-(3,3-Difluorocyclobutyl)-2-[[4-(3-methoxyazetidin-1-yl)benzoyl]amino]thiophene-3-carboxylic acid]
IC50: 0.46 µM

COC1CN(c2ccc(C(=O)Nc3scc(C(C)(C)C)c3C(=O)O)c(F)c2)C1 [Compound #121, 4-tert-Butyl-2-[[2-fluoro-4-(3-methoxyazetidin-1-yl)benzoyl]amino]thiophene-3-carboxylicacid]
IC50: 0.51 µM

COc1ccc(C(=O)Nc2scc(C3CCCCC3)c2C(=O)O)cc1OC [Compound #25, 4-Cyclohexyl-2-[(3,4-dimethoxybenzoyl)amino]thiophene-3-carboxylic acid]
IC50: 0.729 µM

O=C(Nc1scc(C2CCC2)c1C(=O)O)c1ccc(NCC2CCOCC2)cc1 [Compound #99, 4-Cyclobutyl-2-[[4-(tetrahydropyran-4-ylmethylamino)benzoyl]amino]thiophene-3-carboxylic acid]
IC50: 0.014 µM

O=C(Nc1sc(Cl)c(C2CCCCC2)c1C(=O)O)c1ccc(OC(F)F)cc1 [Compound #13, 5-Chloro-4-cyclohexyl-2-[[4-(difluoromethoxy)benzoyl]amino]thiophene-3-carboxylic acid]
IC50: 0.37 µM

CC(C)(C)c1csc(NC(=O)c2cccc(NCC3CCOCC3)c2)c1C(=O)O [Compound #110, 4-tert-Butyl-2-[[3-(tetrahydropyran-4-ylmethylamino)benzoyl]amino]thiophene-3-carboxylic acid]
IC50: 0.82 µM

O=C(Nc1scc(C2CC(F)(F)C2)c1C(=O)O)c1ccc(NCC2CCOCC2)cc1 [Compound #106, 4-(3,3-Difluorocyclobutyl)-2-[[4-(tetrahydropyran-4-ylmethylamino)benzoyl]amino]thiophene-3-carboxylic acid]
IC50: 0.35 µM

O=C(Nc1scc(C2CCC2)c1C(=O)O)c1ccccc1 [Compound #98, 2-Benzamido-4-cyclobutyl-thiophene-3-carboxylic acid]
IC50: 0.61 µM

CC(C)(C)[C@H]1CC[C@@H](c2csc(NC(=O)c3ccccc3)c2C(=O)O)CC1 [Compound #54, 2-Benzamido-4-(cis-4-tert-butylcyclohexyl)thiophene-3-carboxylic acid]
IC50: 0.46 µM

O=C(Nc1scc(C2CCCC2)c1C(=O)O)c1cccc(N2CCOCC2)c1 [Compound #71, 4-Cyclopentyl-2-[(3-morpholinobenzoyl)amino]thiophene-3-carboxylic acid]
IC50: 0.13 µM

COC1CN(c2ccc(C(=O)Nc3sc(C(C)C)c(C)c3C(=O)O)cc2)C1 [Compound #114, 5-Isopropyl-2-[[4-(3-methoxyazetidin-1-yl)benzoyl]amino]-4-methyl-thiophene-3-carboxylic acid diethylamine salt]
IC50: 0.51 µM

O=C(Nc1scc(-c2ccccc2)c1C(=O)O)c1ccccc1 [Compound #43, 2-Benzamido-4-phenyl-thiophene-3-carboxylic acid]
IC50: 5.95 µM

Cc1sc(NC(=O)c2ccccc2)c(C(=O)O)c1-c1ccccc1 [Compound #34, 2-Benzamido-5-methyl-4-phenyl-thiophene-3-carboxylic acid]
IC50: 1.48 µM

O=C(Nc1scc(-c2cccc(Cl)c2)c1C(=O)O)c1ccccc1 [Compound #36, 2-Benzamido-4-(3-chlorophenyl)thiophene-3-carboxylic acid]
IC50: 1.67 µM

CC1(C)C(c2csc(NC(=O)c3ccccc3)c2C(=O)O)C1(C)C [Compound #39, 2-Benzamido-4-(2,2,3,3-tetramethylcyclopropyl)thiophene-3-carboxylic acid]
IC50: 2.37 µM

O=C(Nc1sc(Cl)c(C2CCCCC2)c1C(=O)O)c1ccc(N2CCOCC2)cc1 [Compound #15, 5-Chloro-4-cyclohexyl-2-[(4-morpholinobenzoyl)amino]thiophene-3-carboxylic acid]
IC50: 0.225 µM

Cc1ccccc1C(=O)Nc1sc(Cl)c(C2CCCCC2)c1C(=O)O [Compound #14, 5-Chloro-4-cyclohexyl-2-[(2-methylbenzoyl)amino]thiophene-3-carboxylic acid]
IC50: 0.5 µM

O=C(Nc1scc(C2CCCC2)c1C(=O)O)c1ccc(N2CCOCC2)cc1 [Compound #59, 4-Cyclopentyl-2-[(4-morpholinobenzoyl)amino]thiophene-3-carboxylic acid]
IC50: 0.075 µM

COc1ccc(-c2csc(NC(=O)c3ccccc3)c2C(=O)O)cc1 [Compound #38, 2-Benzamido-4-(4-methoxyphenyl)thiophene-3-carboxylic acid]
IC50: 1.87 µM

O=C(Nc1scc(C2CC(F)(F)C2)c1C(=O)O)c1ccccc1 [Compound #35, 2-Benzamido-4-(3,3-difluorocyclobutyl)thiophene-3-carboxylic acid]
IC50: 1.67 µM

O=C(Nc1scc(C2CCCC2)c1C(=O)O)c1ccccc1 [Compound #10, 2-Benzamido-4-cyclopentyl-thiophene-3-carboxylic acid]
IC50: 0.205 µM

Cc1ccc(-c2csc(NC(=O)c3ccccc3)c2C(=O)O)cc1C [Compound #22, 2-Benzamido-4-(3,4-dimethylphenyl)thiophene-3-carboxylic acid]
IC50: 0.55 µM

O=C(Nc1scc(C2CCCC2)c1C(=O)O)c1ccc(NC2CCOCC2)cc1 [Compound #60, 4-Cyclopentyl-2-[[4-(tetrahydropyran-4-ylamino)benzoyl]amino]thiophene-3-carboxylic acid]
IC50: 0.047 µM
